Assay results reported in US8138189B2, “Substituted benzene compounds as modulators of the glucocorticoid receptor” (Hoffman-La Roche Inc., priority 2009, dated 2012).

Molecular target: T1, full length human recombinant glucocorticoid receptor (Homo sapiens, UniProt P04150)
T1 construct: partially purified full length human recombinant glucocorticoid receptor; purchased Panvera/Invitrogen PV4302
T1 sequence (P04150 1-777): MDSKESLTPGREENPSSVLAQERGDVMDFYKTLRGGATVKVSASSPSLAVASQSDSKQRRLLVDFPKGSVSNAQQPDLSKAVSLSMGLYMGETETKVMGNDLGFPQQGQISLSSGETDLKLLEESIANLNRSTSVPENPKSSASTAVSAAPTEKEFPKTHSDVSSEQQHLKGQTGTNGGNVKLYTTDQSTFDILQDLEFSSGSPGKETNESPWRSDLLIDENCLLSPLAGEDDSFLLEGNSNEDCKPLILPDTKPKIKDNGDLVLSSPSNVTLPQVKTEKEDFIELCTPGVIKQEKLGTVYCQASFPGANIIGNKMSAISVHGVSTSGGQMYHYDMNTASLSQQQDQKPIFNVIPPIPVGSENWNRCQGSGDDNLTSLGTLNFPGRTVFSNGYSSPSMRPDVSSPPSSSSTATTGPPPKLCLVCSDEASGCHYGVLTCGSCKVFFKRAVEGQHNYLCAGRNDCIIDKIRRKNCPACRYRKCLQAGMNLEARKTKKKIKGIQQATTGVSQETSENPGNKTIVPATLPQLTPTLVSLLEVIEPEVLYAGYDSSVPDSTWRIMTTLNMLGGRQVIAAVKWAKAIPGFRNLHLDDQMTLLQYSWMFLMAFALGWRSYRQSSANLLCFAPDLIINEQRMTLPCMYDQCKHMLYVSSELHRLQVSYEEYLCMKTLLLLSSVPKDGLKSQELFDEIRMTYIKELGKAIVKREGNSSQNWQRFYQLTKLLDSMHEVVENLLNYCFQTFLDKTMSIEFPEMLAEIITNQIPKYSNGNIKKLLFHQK
Experiment: Glucocorticoid Receptor Binding Assay (fluorescence polarization competitor assay, Fluormone GS Far Red tracer)
Procedure, shortened: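 Serially diluted compounds competed with the tight-binding far-red fluorescent ligand for recombinant full-length human glucocorticoid receptor plus GR-stabilizing peptide (screening buffer pH 7.4; 3 h, 22 °C, dark). Polarization (610-660 nm) gave IC50 via sigmoidal dose-response fits, and Ki was derived by Cheng-Prusoff from tracer concentration and Kd.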

Compound | Ki [µM]
COC(=O)c1ccc(Oc2ccc(C(C)C(O)(c3ccnc(C)c3)C(F)(F)F)c(Cl)c2)nn1 (stereo not shown) [Example 104, 6-{3-Chloro-4-[3,3,3-trifluoro-2-hydroxy-1-methyl-2-(2-methyl-pyridin-4-yl)-propyl]-phenoxy}-pyridazine-3-carboxylic acid methyl ester] | 0.0874
Cc1cc(C(O)(C(C)c2ccc(Oc3ccc(C(=O)O)nn3)cc2Cl)C(F)(F)F)ccn1 (stereo not shown) [Example 105, 6-{3-Chloro-4-[3,3,3-trifluoro-2-hydroxy-1-methyl-2-(2-methyl-pyridin-4-yl)-propyl]-phenoxy}-pyridazine-3-carboxylic acid] | 0.361
CCOC(=O)c1ccc(COc2ccc(C(C)C(O)(c3ccncc3)C(F)(F)F)c(Cl)c2)cc1 (stereo not shown) [Example 106, 4-[3-Chloro-4-(3,3,3-trifluoro-2-hydroxy-1-methyl-2-pyridin-4-yl-propyl)-phenoxymethyl]-benzoic acid ethyl ester] | 0.0471
CC(c1ccc(OCc2ccc(C(=O)O)cc2)cc1Cl)C(O)(c1ccncc1)C(F)(F)F (stereo not shown) [Example 107, 4-[3-Chloro-4-(3,3,3-trifluoro-2-hydroxy-1-methyl-2-pyridin-4-yl-propyl)-phenoxymethyl]-benzoic acid] | 0.0308
COC(=O)c1cnc(COc2ccc(C(C)C(O)(c3ccnc(Cl)c3)C(F)(F)F)c(Cl)c2)cn1 (stereo not shown) [Example 112, 5-{3-Chloro-4-[2-(2-chloro-pyridin-4-yl)-3,3,3-trifluoro-2-hydroxy-1-methyl-propyl]-phenoxymethyl}-pyrazine-2-carboxylic acid methyl ester] | 0.0092
CC(c1ccc(OCc2cnc(C(=O)O)cn2)cc1Cl)C(O)(c1ccnc(Cl)c1)C(F)(F)F (stereo not shown) [Example 113, 5-{3-Chloro-4-[2-(2-chloro-pyridin-4-yl)-3,3,3-trifluoro-2-hydroxy-1-methyl-propyl]-phenoxymethyl}-pyrazine-2-carboxylic acid] | 0.0136
COC(=O)c1cnc(Oc2ccc(C(C)C(O)(c3ccnc(Cl)c3)C(F)(F)F)c(Cl)c2)cn1 (stereo not shown) [Example 114, 5-{3-Chloro-4-[2-(2-chloro-pyridin-4-yl)-3,3,3-trifluoro-2-hydroxy-1-methyl-propyl]-phenoxy}-pyrazine-2-carboxylic acid methyl ester] | 0.0242
CC(c1ccc(Oc2cnc(C(=O)O)cn2)cc1Cl)C(O)(c1ccnc(Cl)c1)C(F)(F)F (stereo not shown) [Example 115, 5-{3-Chloro-4-[2-(2-chloro-pyridin-4-yl)-3,3,3-trifluoro-2-hydroxy-1-methyl-propyl]-phenoxy}-pyrazine-2-carboxylic acid] | 0.0968
COC(=O)c1cnc(Oc2ccc(C(C)C(O)(c3ccnc(Cl)c3)C(F)(F)F)c(Cl)c2)nc1 (stereo not shown) [Example 116, 2-{3-Chloro-4-[2-(2-chloro-pyridin-4-yl)-3,3,3-trifluoro-2-hydroxy-1-methyl-propyl]-phenoxy}-pyrimidine-5-carboxylic acid methyl ester] | 0.0406

The next lines start with the values.

Ki [µM] | Compound
0.0082 | CCOC(=O)c1ccc(COc2ccc(C(C)C(O)(c3ccnc(C)c3)C(F)(F)F)c(Cl)c2)cc1 (stereo not shown) [Example 93, 4-{3-Chloro-4-[3,3,3-trifluoro-2-hydroxy-1-methyl-2-(2-methyl-pyridin-4-yl)-propyl]-phenoxymethyl}-benzoic acid ethyl ester]
0.004 | Cc1cc(C(O)(C(C)c2ccc(OCc3ccc(C(=O)O)cc3)cc2Cl)C(F)(F)F)ccn1 (stereo not shown) [Example 94, 4-{3-Chloro-4-[3,3,3-trifluoro-2-hydroxy-1-methyl-2-(2-methyl-pyridin-4-yl)-propyl]-phenoxymethyl}-benzoic acid]
0.0036 | COC(=O)c1ccc(COc2ccc(C(C)C(O)(c3ccnc(C)c3)C(F)(F)F)c(Cl)c2)c(OC)c1 (stereo not shown) [Example 95, 4-{3-Chloro-4-[3,3,3-trifluoro-2-hydroxy-1-methyl-2-(2-methyl-pyridin-4-yl)-propyl]-phenoxymethyl}-3-methoxy-benzoic acid methyl ester]
0.0061 | COc1cc(C(=O)O)ccc1COc1ccc(C(C)C(O)(c2ccnc(C)c2)C(F)(F)F)c(Cl)c1 (stereo not shown) [Example 96, 4-{3-Chloro-4-[3,3,3-trifluoro-2-hydroxy-1-methyl-2-(2-methyl-pyridin-4-yl)-propyl]-phenoxymethyl}-3-methoxy-benzoic acid]
0.0091 | CCOC(=O)c1ccc(COc2ccc(C(C)C(O)(c3ccnc(C)c3)C(F)(F)F)c(Cl)c2)cn1 (stereo not shown) [Example 97, 5-{3-Chloro-4-[3,3,3-trifluoro-2-hydroxy-1-methyl-2-(2-methyl-pyridin-4-yl)-propyl]-phenoxymethyl}-pyridine-2-carboxylic acid ethyl ester]
0.0409 | Cc1cc(C(O)(C(C)c2ccc(OCc3ccc(C(=O)O)nc3)cc2Cl)C(F)(F)F)ccn1 (stereo not shown) [Example 98, 5-{3-Chloro-4-[3,3,3-trifluoro-2-hydroxy-1-methyl-2-(2-methyl-pyridin-4-yl)-propyl]-phenoxymethyl}-pyridine-2-carboxylic acid]
0.0091 | COC(=O)c1ccnc(COc2ccc(C(C)C(O)(c3ccnc(C)c3)C(F)(F)F)c(Cl)c2)c1 (stereo not shown) [Example 99, 2-{3-Chloro-4-[3,3,3-trifluoro-2-hydroxy-1-methyl-2-(2-methyl-pyridin-4-yl)-propyl]-phenoxymethyl}-isonicotinic acid methyl ester]
0.0349 | Cc1cc(C(O)(C(C)c2ccc(OCc3cc(C(=O)O)ccn3)cc2Cl)C(F)(F)F)ccn1 (stereo not shown) [Example 100, 2-{3-Chloro-4-[3,3,3-trifluoro-2-hydroxy-1-methyl-2-(2-methyl-pyridin-4-yl)-propyl]-phenoxymethyl}-isonicotinic acid]
0.0094 | CCOC(=O)c1cc(COc2ccc(C(C)C(O)(c3ccnc(C)c3)C(F)(F)F)c(Cl)c2)ccn1 (stereo not shown) [Example 101, 4-{3-Chloro-4-[3,3,3-trifluoro-2-hydroxy-1-methyl-2-(2-methyl-pyridin-4-yl)-propyl]-phenoxymethyl}-pyridine-2-carboxylic acid ethyl ester]
0.0202 | Cc1cc(C(O)(C(C)c2ccc(OCc3ccnc(C(=O)O)c3)cc2Cl)C(F)(F)F)ccn1 (stereo not shown) [Example 102, 4-{3-Chloro-4-[3,3,3-trifluoro-2-hydroxy-1-methyl-2-(2-methyl-pyridin-4-yl)-propyl]-phenoxymethyl}-pyridine-2-carboxylic acid]
0.0792 | COc1cc(C(=O)O)ccc1COc1ccc(C(C)C(O)(c2ccncc2)C(F)(F)F)c(Cl)c1 (stereo not shown) [Example 109, 4-[3-Chloro-4-(3,3,3-trifluoro-2-hydroxy-1-methyl-2-pyridin-4-yl-propyl)-phenoxymethyl]-3-methoxy-benzoic acid]
0.0064 | COC(=O)c1ccc(COc2ccc(C(C)C(O)(c3ccnc(Cl)c3)C(F)(F)F)c(Cl)c2)nc1 (stereo not shown) [Example 110, 6-{3-Chloro-4-[2-(2-chloro-pyridin-4-yl)-3,3,3-trifluoro-2-hydroxy-1-methyl-propyl]-phenoxymethyl}-nicotinic acid methyl ester]
0.013 | CC(c1ccc(OCc2ccc(C(=O)O)cn2)cc1Cl)C(O)(c1ccnc(Cl)c1)C(F)(F)F (stereo not shown) [Example 111, 6-{3-Chloro-4-[2-(2-chloro-pyridin-4-yl)-3,3,3-trifluoro-2-hydroxy-1-methyl-propyl]-phenoxymethyl}-nicotinic acid]
